Test results from patent US12297192B2, “Crystal form of pyrimidine sulfonamide compound and preparation method therefor” (WUXI BIOCITY BIOPHARMACEUTICS CO., LTD., priority 2019, dated 2025).

How the values were obtained:
[1] = tested on: pulmonary hypertension in SD rats induced by monocrotaline (MCT); test: In vivo pharmacodynamic evaluation, monocrotaline (MCT)-induced pulmonary hypertension model; conditions: for 21-day weight change rate / PCNA positivity rate / Percentage of middle pulmonary artery intima-media thickness / Right ventricular ejection fraction / Right ventricular hypertrophy index / Right ventricular systolic pressure / Right ventricular wall thickness: 21 days, Mean ± SEM, n = 12
Source text: The animal model of pulmonary hypertension in SD rats induced by monocrotaline (MCT) was used in this study to examine the pharmacological effects of the test compound on a rat model of pulmonary hypertension.
• Species: Rat • Strain: Sprague-Dawley • Age at arrival at animal house: 5 weeks • Gender: Male • Animal weight at the start of the experiment: 200-260 g • Number: 88 (81 for pharmacodynamic (PD) and pharmacokinetic (PK) tests and 7 for PK-blank matrix) • Supplier: Shanghai SLAC Experimental Animals Co. • Certificate of the animals: 20170005008695 Other Reagent Information
Solutions of 3 mg/mL Macitentan, 0.1 mg/mL, 0.3 mg/mL and 1 mg/mL the compound of formula (I): an appropriate amount of the compound was weighed and added to a flask with an appropriate volume. PEG 400 of 20% of the total volume was added. Heating and stirring were conducted at 40° C. Tween 80 of 0.5% of the total volume was added. Heating and stirring were conducted at 40° C. Deionized water of 70-75% of the volume was added. Heating and stirring were conducted at 40° C. The pH was adjusted with 5 N NaOH until became clear. Then the pH was reversely adjusted to less than 9 with 6 N HCl and 1 N HCl. The remaining volume was made up with deionized water to achieve the total volume. The final pH was determined (9±0.1).
After the animals had been acclimatized for about 1 week, the animals were randomized into 9 groups according to body weight and the condition of the animal, as shown in Table 15.
Monitoring Indicators Monitoring Indicators in PD Tests • 1) Daily monitoring of the general condition of the animals and their body weights; • 2) Right ventricular function tests: right ventricular ejection fraction (RVEF), right ventricular wall thickness (RVWT); • 3) Hemodynamic tests: right ventricular systolic pressure (RVSP); • 4) Determination of the right ventricular hypertrophy index (RVHI): RV/(LV+SEP); • 5) […] staining to observe PAWT/IHC staining to observe PCNA as the endpoint detection. Monitoring Indicators in PK Tests • 1) Daily monitoring of the general condition of the animals and their body weights; • 2) Plasma: determination of the pharmacokinetic parameters of the compounds in plasma. Test Method B-Mode Ultrasonic Detection of RVEF, RVWT
Rats were anesthetized with 30 mg/mL pentobarbital sodium (2 mL/kg, ip) and RVEF, RVWT were measured using a small animal ultrasound instrument (VEVO-1100).
Rats were anesthetized with 30 mg/mL sodium pentobarbital (2 mL/kg, ip), fixed onto a surgical plate in supine position, and shaved on the neck. A skin incision was made on the neck. The subcutaneous tissue and muscle layer were bluntly dissected. And the left carotid artery and right jugular vein were stripped. A rat-specific right heart catheter (a PE tube with an external diameter of about 1.5 mm and a small arc-shaped curve at the distal end) connected to a pressure transducer and filled with 0.3% heparin sodium solution was inserted into the right external jugular vein. The arc of the pulmonary artery catheter was kept downwards during the operation and the pulmonary artery catheter was threaded towards the right atrium. The pressure waveform was used to judge whether it had reached the heart. The catheter was deflected towards the left and pushed forward into the right ventricle.
The heart was removed. The atria and great vessels were removed. Blotted to dryness with filter paper. The right ventricle was stripped and weighed to calculate RVHI=RV/(LV+SEP).
After euthanasia of the rats, the middle lobe of the right lung was removed, perfused using saline and placed in 4% paraformaldehyde for fixation for the purpose of pathological examination.
All data was entered into an Excel document and expressed as mean (Mean)±standard error of mean (SEM). One-way ANOVA with Dunnett's t test was used to analyze and compare the data of each group. Differences between two groups were compared using the unpaired two-tailed t-test method.

[2] = Pharmacokinetic evaluation in Beagle dogs; type: in vivo; conditions: for Bioavailability F: 3 mg/kg
Experimental: Male Beagle dogs were used as the test animals in this study. The LC/MS/MS method was applied to quantify the plasma drug concentrations in Beagle dogs at different time points after administration of the test compound by intravenous injection or oral gavage to evaluate the pharmacokinetic profile of the test compound in Beagle dogs.
Beagle dogs (Male, 6-15 kg, above 6 months, Beijing Marshall Biotechnology Co.)
A clear solution of the test compound was administered to the Beagle dogs by intravenous injection (overnight fasting) or oral gavage (overnight fasting). At 0 h (before administration by intravenous injection) and at 0.0833, 0.25, 0.5, 1, 2, 4, 6, 8 and 24 h after administration by intravenous injection, about 500 μL of blood was collected from peripheral blood vessels into anticoagulation tubes supplemented with EDTA-K2 (Jiangsu Kangjian Medical Supplies Co., Ltd.). At 0 hours (before administration by oral gavage) and 0.25, 0.5, 1, 2, 4, 6, 8 and 24 hours after administration by oral gavage, about 500 μL of blood was collected from peripheral blood vessels into anticoagulation tubes supplemented with EDTA-K2. The mixture in the anticoagulation tube was vortexed thoroughly at 4° C. and the plasma was then centrifuged at 13,000 rpm for 10 minutes to obtain the plasma. Blood concentrations were determined by LC/MS/MS and the relevant pharmacokinetic parameters were calculated using WinNonlin™ Version 6.3 (Pharsight, Mountain View, CA) pharmacokinetics software with a non-compartmental model linear-log trapezoidal method.

## COCCNS(=O)(=O)Nc1ncnc(OCCOc2ncc(Br)cn2)c1-c1ccc2c(c1)OCO2 [Compound of formula (I)]
[1]; 1 mg/kg PO/QD
  21-day weight change rate: 43.33 ± 1.56%
  PCNA positivity rate: 3.6 ± 0.69 %
  Percentage of middle pulmonary artery intima-media thickness: 40.44 ± 1.13 %
  Right ventricular ejection fraction: 58.48 ± 2.11 %
  Right ventricular hypertrophy index: 0.40 ± 0.01
  Right ventricular systolic pressure: 40.72 ± 3.38 mmHg
  Right ventricular wall thickness: 1.16 ± 0.05 mm
[1]; 3 mg/kg PO/QD
  21-day weight change rate: 41.23 ± 3.47%
  PCNA positivity rate: 3.56 ± 0.66 %
  Percentage of middle pulmonary artery intima-media thickness: 35.44 ± 1.55 %
  Right ventricular ejection fraction: 58 ± 1.80 %
  Right ventricular hypertrophy index: 0.38 ± 0.03
  Right ventricular systolic pressure: 36.70 ± 3.81 mmHg
  Right ventricular wall thickness: 1.11 ± 0.05 mm
[1]; 10 mg/kg PO/QD
  21-day weight change rate: 42.04 ± 3.07%
  PCNA positivity rate: 2.85 ± 0.65 %
  Percentage of middle pulmonary artery intima-media thickness: 40.11 ± 1.07 %
  Right ventricular ejection fraction: 59.86 ± 2.29 %
  Right ventricular hypertrophy index: 0.36 ± 0.02
  Right ventricular systolic pressure: 37.82 ± 3.10 mmHg
  Right ventricular wall thickness: 1.10 ± 0.05 mm
[1]; doses of 1, 3 and 10 mg/kg
  Indicators of pulmonary hypertension and right ventricular function (in words): significantly improved
[2]; intravenous injection 1 mg/kg
  Area under the drug concentration-time curve: 7.56 µM·h
[2]; oral 3 mg/kg
  Area under the drug concentration-time curve: 33.40 µM·h
  Peak concentration: 12.75 µM
  Peak time: 0.38 h
  Bioavailability F: 147%
[2]; oral 3 mg/kg, listed as compound of formula (I)
  Bioavailability F: > 50%

## CCCNS(=O)(=O)Nc1ncnc(OCCOc2ncc(Br)cn2)c1-c1ccc(Br)cc1 [Macitentan, reference compound]
[1]; 30 mg/kg gavage once a day
  21-day weight change rate: 45.75 ± 2.14%
  PCNA positivity rate: 4.43 ± 0.42%
  Percentage of middle pulmonary artery intima-media thickness: 46.56 ± 1.07 %
  Right ventricular ejection fraction: 58.87 ± 1.71 %
  Right ventricular hypertrophy index: 0.36 ± 0.03
  Right ventricular systolic pressure: 38.71 ± 3.52 mmHg
  Right ventricular wall thickness: 1.13 ± 0.04 mm
